Experimental data as given in patent US7750148B2, “Intermediate compound for the production of β-lactamase-resistant cephalosporin ester compounds and salts thereof” (Zhejiang Yongning Pharmaceutical Factory, priority 2003, dated 2010).
Converted amounts (≈) assume the structure as drawn. Where two headings read alike, the source gives them in different places.

Tests used:
Proteus morganii 49086 = experiment: In vitro antibacterial activity (MIC, agar double dilution); assay type: cell-based; set-up: MIC (as restated in the conclusions): unit not given here; settings: for antibacterial activities enhanced versus CTM or CRX used solely: YR-1 vs CTM, YR-2 vs CRX
Text: tested samples YR-1, YR-2 were the ones prepared in example 1 and example 5 respectively, control samples were cefetamet sodium (CTM), cefuroxime sodium (CRX), cefetamet sodium+sulbactam sodium (CTM+SBT) (molar ratio 1:1), cefuroxime+sulbactam sodium (CRX+SBT) (molar ratio 1:1). All control samples (have been sold on the market) were supplied by Zhejiang Yongning pharmaceutical factory.
Staphylococcus aureus 26003, Diplococcus lanceolatus 31002, E. coli 44102, Shigella sonnet 51081, Shigella bogdii 51313, Shigella flexneri 51573, Proteus mirabilis 49005, Bacillus proteus 49085, Proteus morganii 49086, Pseudomonas aeruginosa 10124, Bacillus pneumoniae 46101, Salmonella enteritidis 50041, Salmonella typhi 50097, Citrobacter 48017, Candida ciferii 41002 were supplied by Shanghai Hygienic and Antiepidemic Station.
Mueller-Hinton Agar (M.H) culture medium, batch number 20040528 (Shanghai Reagent Supply Research Center, China Diarrhea Disease Control).
Adopted agar double dilution, inoculated using multipoint inoculator, inoculated 10^5CFU/ML each point, cultured for 24 hours at 37° C., observed and recorded the results, set the least concentration of the antibacterial drug that can inhibit bacteria growth as the minimum inhibitory concentration (MIC).

[1] = Mouse maximum tolerable dose experiment (acute toxicity); assay type: in vivo, Kunming mice; settings: for abnormalities in the organs after killed (autopsy) / symptoms of toxic reactions: 5 g/kg intragastric; for abnormalities in the organs after killed (autopsy): after 7 days observation; for symptoms of toxic reactions: fasted for 16 hours; for symptoms of toxic reactions / Death rate: 7 days observation; for Death rate / Death number during observation: 5 g/kg/24 hr intragastric
Protocol: tested samples (YR-1, YR-2) are the same as above.
Strain: Kunming mice; source: Animal Facility of Shanghai Institute of Pharmaceutical Industry; certificate number: Hudonghezhengzi No. 107; animal numbers: 20; Sex: same number of male and female mice; Body weight: 18-21 g; fast time: 16 hours.
Preparation of samples: 5 g/kg (prepared with 5% carboxymethyl cellulose CMC); volume accepted: 0.6 ml/20 g body weight/each time; administration times: once; dosage: 5 g/kg/24 hr
Intragastric Administration
20 mice, 10 male and 10 female, were given YR-1 or YR-2 via intragastric administration, observed manifestation of mice toxic symptom immediately after administration, recorded mice death number.
Observed manifestation of mice toxic symptom immediately after administration, observed twice each day (morning and evening).
Toxic reaction: recorded behaviors of mice, skin, respiration, urination and defecation, appetite, checked if there are abnormal secretions appeared in the nose, eye and mouth.
Observation period: 7 days, killed all the surviving mice after observation period, and autopsied to see if there is any abnormality existed in the mice organs.

Compound | antibacterial activities enhanced versus CTM or CRX used solely (Proteus morganii 49086; Proteus morganii 49086) | abnormalities in the organs after killed (autopsy) ([1]; Kunming mice) | symptoms of toxic reactions ([1]; Kunming mice) | Death rate ([1]; female mice) [%] | Death number during observation ([1]; female mice, day 1) | Death number during observation ([1]; female mice, day 2) | Death number during observation ([1]; female mice, day 3) | Death number during observation ([1]; female mice, day 4) | Death number during observation ([1]; female mice, day 5) | Death number during observation ([1]; female mice, day 6) | Death number during observation ([1]; female mice, day 7) | Death rate ([1]; male mice) [%] | Death number during observation ([1]; male mice, day 1) | Death number during observation ([1]; male mice, day 2) | Death number during observation ([1]; male mice, day 3) | Death number during observation ([1]; male mice, day 4) | Death number during observation ([1]; male mice, day 5) | Death number during observation ([1]; male mice, day 6) | Death number during observation ([1]; male mice, day 7) | other results
5-thia-1-aza-bicyclo [4,2,0] octane-2-ene-2-carboxylic acid, 7-[[(2-amino-4-thiazolyl) (methoxy imine) acetyl]amino]-3-methyl-8-oxo-, [[3,3-dimethyl-4,4-dioxy-7-oxo-4-thia-1-aza-bicyclo [3,2,0] heptane-2-group]carbonyloxy]oxy]methyl ester [YR-1] | one hundred times | no abnormalities were observed in the organs | no obvious abnormal symptoms of toxic reactions | 0 | 0 | 0 | 0 | 0 | 0 | 0 | 0 | 0 | 0 | 0 | 0 | 0 | 0 | 0 | 0 | MIC (as restated in the conclusions) (Proteus morganii 49086; Proteus morganii 49086): 0.78; MIC of the drug to bacteria (Proteus morganii 49086; Proteus morganii 49086, 10^5CFU/ML each point, 24 hours at 37° C.): 0.78 mg/L
CON=C(C(=O)NC1C(=O)N2C(C(=O)OCOC(=O)C3N4C(=O)CC4S(=O)(=O)C3(C)C)=C(COC(N)=O)CSC12)c1ccco1 (stereo not shown) [YR-2, 5-thia-1-aza-bicyclo [4,2,0] octane-2-ene-2-carboxylic acid, 7-[[(2-furane (methoxy imine)acetyl)amino]-3-[[(aminocarbonyloxy)oxy]methyl]-8-oxo-, [[3,3-dimethyl-4,4-dioxy-7-oxo-4-thia-1-aza-bicyclo[3,2,0]heptane-2-group]carbonyloxy]oxy]methyl ester] | four times | no abnormalities were observed in the organs | no obvious abnormal symptoms of toxic reactions | 0 | 0 | 0 | 0 | 0 | 0 | 0 | 0 | 0 | 0 | 0 | 0 | 0 | 0 | 0 | 0 | MIC (Proteus morganii 49086; Morganella morganii, 49086, 24 h, read-out: MIC of the drug to bacteria): 25 mg/L; MIC (Proteus morganii 49086; Morganella morganii, 49086, read-out: MIC (as restated in the conclusions)): 25000 mg/L (≈ 37.3 mM); LD50 at 7 days ([1]; both sexes, mouse, in vivo, po, 5 g/kg, Kunming mice, intragastric administration, once): > 5000 mg/kg
